What was measured:
Glucocorticoid receptor = biological target: T1, Glucocorticoid receptor (Homo sapiens, UniProt P04150); experiment: Inhibition of CHO-K1 cells expressing glucocorticoid receptor; format: cell-based
T1 sequence (P04150 whole entry): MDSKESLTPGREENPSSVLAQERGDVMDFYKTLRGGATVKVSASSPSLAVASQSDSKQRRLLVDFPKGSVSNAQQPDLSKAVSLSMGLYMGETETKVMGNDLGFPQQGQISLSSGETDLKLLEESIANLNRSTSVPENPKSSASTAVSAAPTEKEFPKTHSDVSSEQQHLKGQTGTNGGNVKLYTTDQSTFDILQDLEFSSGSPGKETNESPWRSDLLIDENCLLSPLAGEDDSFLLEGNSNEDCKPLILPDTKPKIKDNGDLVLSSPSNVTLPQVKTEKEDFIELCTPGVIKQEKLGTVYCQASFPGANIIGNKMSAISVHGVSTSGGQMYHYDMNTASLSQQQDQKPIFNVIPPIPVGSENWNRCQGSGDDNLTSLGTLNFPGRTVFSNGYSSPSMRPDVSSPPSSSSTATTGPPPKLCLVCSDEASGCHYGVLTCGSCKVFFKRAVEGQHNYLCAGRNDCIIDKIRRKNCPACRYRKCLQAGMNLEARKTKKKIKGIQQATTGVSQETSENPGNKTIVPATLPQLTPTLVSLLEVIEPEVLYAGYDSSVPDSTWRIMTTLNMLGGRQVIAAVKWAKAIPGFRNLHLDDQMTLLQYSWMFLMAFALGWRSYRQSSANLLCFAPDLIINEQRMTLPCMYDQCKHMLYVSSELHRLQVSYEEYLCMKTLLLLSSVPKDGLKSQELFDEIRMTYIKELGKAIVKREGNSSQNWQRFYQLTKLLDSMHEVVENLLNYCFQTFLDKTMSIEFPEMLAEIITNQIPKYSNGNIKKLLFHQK

Androgen receptor [1] = biological target: T2, Androgen receptor (Homo sapiens, UniProt P10275); experiment: Inhibition of human androgen receptor expressed in Escherichia coli
T2 sequence (P10275 whole entry): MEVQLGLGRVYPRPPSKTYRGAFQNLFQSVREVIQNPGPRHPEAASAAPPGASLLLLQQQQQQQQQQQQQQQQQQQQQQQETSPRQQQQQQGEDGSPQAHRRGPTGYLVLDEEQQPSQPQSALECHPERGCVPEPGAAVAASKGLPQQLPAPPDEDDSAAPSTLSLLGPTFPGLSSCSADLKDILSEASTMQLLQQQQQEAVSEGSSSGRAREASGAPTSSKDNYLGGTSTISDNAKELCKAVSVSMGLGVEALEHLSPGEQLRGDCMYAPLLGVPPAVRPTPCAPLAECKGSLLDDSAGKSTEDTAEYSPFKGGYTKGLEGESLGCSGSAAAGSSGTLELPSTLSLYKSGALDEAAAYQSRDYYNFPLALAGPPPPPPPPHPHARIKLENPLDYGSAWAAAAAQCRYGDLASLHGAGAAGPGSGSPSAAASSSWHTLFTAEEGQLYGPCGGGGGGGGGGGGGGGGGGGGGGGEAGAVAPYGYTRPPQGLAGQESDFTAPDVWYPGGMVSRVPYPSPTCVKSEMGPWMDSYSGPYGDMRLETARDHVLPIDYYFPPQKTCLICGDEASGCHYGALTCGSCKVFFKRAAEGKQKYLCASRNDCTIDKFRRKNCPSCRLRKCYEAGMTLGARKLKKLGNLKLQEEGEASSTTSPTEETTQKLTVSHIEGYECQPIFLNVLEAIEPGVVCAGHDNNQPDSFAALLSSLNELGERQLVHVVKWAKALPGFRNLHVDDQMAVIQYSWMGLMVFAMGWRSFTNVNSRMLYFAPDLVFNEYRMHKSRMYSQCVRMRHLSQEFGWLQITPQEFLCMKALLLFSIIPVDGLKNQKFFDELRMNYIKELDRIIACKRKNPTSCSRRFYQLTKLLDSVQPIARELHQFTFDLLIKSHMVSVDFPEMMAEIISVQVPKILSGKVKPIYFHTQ

Androgen receptor [2] = biological target: T2, Androgen receptor; experiment: Inhibition of AR-dimerization in CHO-K1 cells expressing human androgen receptor

Structure (SMILES) | IC50 (Glucocorticoid receptor) | IC50 (Androgen receptor [1]) | IC50 (Androgen receptor [2])
CC[C@H]1C[C@@]2(C)C(CC[C@@H]2O)C2CCC3=CC(=O)CCC3=C21 (stereo partly drawn) | 1290 nM | 2 nM | 
CCCCC[C@H]1C[C@@]2(C)C(CC[C@@H]2O)C2CCC3=CC(=O)CCC3=C21 (stereo partly drawn) | 125 nM | 0.1 nM | 0.009 nM
CCCCCCCCCC[C@H]1C[C@@]2(C)C(CC[C@@H]2O)C2CCC3=CC(=O)CCC3=C21 (stereo partly drawn) | 1810 nM | 0.8 nM | 85 nM
CCCCCCCC[C@H]1C[C@@]2(C)C(CC[C@@H]2O)C2CCC3=CC(=O)CCC3=C21 (stereo partly drawn) | 979 nM | 6.6 nM | 0.9 nM
CCCCCCCCCCCC[C@H]1C[C@@]2(C)C(CC[C@@H]2O)C2CCC3=CC(=O)CCC3=C21 (stereo partly drawn) | 870 nM | 0.2 nM | 

Reference: ChEMBL document CHEMBL1137214, “11beta-alkyl-Delta9-19-nortestosterone derivatives: high-affinity ligands and potent partial agonists of the androgen receptor” (J Med Chem, 2004)
